Literature values as cited in publication PMC12281572.
“And” between values parts separate entries of the source, which are not always exact repeats. Identical values can stand only once.

Experiment: FTIR, 4-fluorophenol as donor (the pK_BHX database, per the paper)
Details: CCl4; 25 C

CN(C)C=NC(=S)N(C)C
pK_BHX (log10 Kf of the 1:1 H-bond complex with 4-fluorophenol, by FTIR): 1.79 log units

c1cc(N2CCCC2)ccn1
pK_BHX (log10 Kf of the 1:1 H-bond complex with 4-fluorophenol, by FTIR): 2.93 log units

CCS
pK_BHX (log10 Kf of the 1:1 H-bond complex with 4-fluorophenol, by FTIR): -0.16 log units

CC(=O)N(C1CCCCC1)C1CCCCC1
pK_BHX (log10 Kf of the 1:1 H-bond complex with 4-fluorophenol, by FTIR): 2.41 log units

COC(OC)OC
pK_BHX (log10 Kf of the 1:1 H-bond complex with 4-fluorophenol, by FTIR): 0.55 log units

C#CCNC
pK_BHX (log10 Kf of the 1:1 H-bond complex with 4-fluorophenol, by FTIR): 1.64 log units

O=C(C(=O)c1ccccc1)c1ccccc1
pK_BHX (log10 Kf of the 1:1 H-bond complex with 4-fluorophenol, by FTIR): 0.44 log units

c1ccc(Nc2ccccc2)cc1
pK_BHX (log10 Kf of the 1:1 H-bond complex with 4-fluorophenol, by FTIR): -0.3 log units

CCN(CC)C(=O)c1cccnc1
pK_BHX (log10 Kf of the 1:1 H-bond complex with 4-fluorophenol, by FTIR): 1.98 log units and 1.63 log units

COC=O
pK_BHX (log10 Kf of the 1:1 H-bond complex with 4-fluorophenol, by FTIR): 0.65 log units

CCc1cccnc1
pK_BHX (log10 Kf of the 1:1 H-bond complex with 4-fluorophenol, by FTIR): 2.01 log units

Cc1ccc(C)c(C)c1C
pK_BHX (log10 Kf of the 1:1 H-bond complex with 4-fluorophenol, by FTIR): -0.14 log units

N#Cc1ccc(Br)cc1
pK_BHX (log10 Kf of the 1:1 H-bond complex with 4-fluorophenol, by FTIR): 0.73 log units

c1ccc(C23CC4CC(CC(C4)C2)C3)cc1
pK_BHX (log10 Kf of the 1:1 H-bond complex with 4-fluorophenol, by FTIR): -0.28 log units

CN(C)C=CC#N
pK_BHX (log10 Kf of the 1:1 H-bond complex with 4-fluorophenol, by FTIR): 1.7 log units

CN(C)C=NC(=O)c1ccccc1
pK_BHX (log10 Kf of the 1:1 H-bond complex with 4-fluorophenol, by FTIR): 2.1 log units

C#CCN=CN(C)C
pK_BHX (log10 Kf of the 1:1 H-bond complex with 4-fluorophenol, by FTIR): 2.3 log units

c1cscn1
pK_BHX (log10 Kf of the 1:1 H-bond complex with 4-fluorophenol, by FTIR): 1.37 log units

CN(C)C=Nc1ccc(C(F)(F)F)cc1
pK_BHX (log10 Kf of the 1:1 H-bond complex with 4-fluorophenol, by FTIR): 1.43 log units

C1CCOCC1
pK_BHX (log10 Kf of the 1:1 H-bond complex with 4-fluorophenol, by FTIR): 1.23 log units

CC(C)=O
pK_BHX (log10 Kf of the 1:1 H-bond complex with 4-fluorophenol, by FTIR): 1.18 log units

CCCC(=O)c1ccccc1
pK_BHX (log10 Kf of the 1:1 H-bond complex with 4-fluorophenol, by FTIR): 1.04 log units

COc1ccc(C(=O)c2ccc(OC)cc2)cc1
pK_BHX (log10 Kf of the 1:1 H-bond complex with 4-fluorophenol, by FTIR): 1.49 log units

CC(=O)n1ccnc1
pK_BHX (log10 Kf of the 1:1 H-bond complex with 4-fluorophenol, by FTIR): 1.86 log units

CCOC(=O)c1cccc(C)c1
pK_BHX (log10 Kf of the 1:1 H-bond complex with 4-fluorophenol, by FTIR): 1.01 log units

CSc1ccc(C(C)=O)cc1
pK_BHX (log10 Kf of the 1:1 H-bond complex with 4-fluorophenol, by FTIR): 1.21 log units

CC(=Nc1ccc(Br)cc1)N(C)c1ccccc1
pK_BHX (log10 Kf of the 1:1 H-bond complex with 4-fluorophenol, by FTIR): 1.36 log units

CC(=O)c1ccc(C(F)(F)F)cc1
pK_BHX (log10 Kf of the 1:1 H-bond complex with 4-fluorophenol, by FTIR): 0.78 log units

CO
pK_BHX (log10 Kf of the 1:1 H-bond complex with 4-fluorophenol, by FTIR): 0.82 log units

c1ccncc1
pK_BHX (log10 Kf of the 1:1 H-bond complex with 4-fluorophenol, by FTIR): 1.86 log units

Ic1cccnc1
pK_BHX (log10 Kf of the 1:1 H-bond complex with 4-fluorophenol, by FTIR): 1.37 log units

CCCO
pK_BHX (log10 Kf of the 1:1 H-bond complex with 4-fluorophenol, by FTIR): 1.0 log units

O=CN(c1ccccc1)c1ccccc1
pK_BHX (log10 Kf of the 1:1 H-bond complex with 4-fluorophenol, by FTIR): 1.41 log units

O=C(Cl)N(c1ccccc1)c1ccccc1
pK_BHX (log10 Kf of the 1:1 H-bond complex with 4-fluorophenol, by FTIR): 0.75 log units

O=[N+]([O-])c1cccc(N=C(Nc2ccccc2)c2ccccc2)c1
pK_BHX (log10 Kf of the 1:1 H-bond complex with 4-fluorophenol, by FTIR): 0.86 log units

C1=CCNCC1
pK_BHX (log10 Kf of the 1:1 H-bond complex with 4-fluorophenol, by FTIR): 2.16 log units

CC1CCCO1 (centres unmarked)
pK_BHX (log10 Kf of the 1:1 H-bond complex with 4-fluorophenol, by FTIR): 1.34 log units

CN(C)C=NCC(F)(F)F
pK_BHX (log10 Kf of the 1:1 H-bond complex with 4-fluorophenol, by FTIR): 1.6 log units

Clc1ccc(N=CNc2ccc(Cl)cc2)cc1
pK_BHX (log10 Kf of the 1:1 H-bond complex with 4-fluorophenol, by FTIR): 1.63 log units

CC(C)N(C)C
pK_BHX (log10 Kf of the 1:1 H-bond complex with 4-fluorophenol, by FTIR): 2.11 log units

Cc1ccc[n+]([O-])c1
pK_BHX (log10 Kf of the 1:1 H-bond complex with 4-fluorophenol, by FTIR): 2.92 log units

C#CC(C)=O
pK_BHX (log10 Kf of the 1:1 H-bond complex with 4-fluorophenol, by FTIR): 0.68 log units

Cc1ccnc(C)c1
pK_BHX (log10 Kf of the 1:1 H-bond complex with 4-fluorophenol, by FTIR): 2.21 log units

CC(C)(C)C(=O)N(c1ccccc1)c1ccccc1
pK_BHX (log10 Kf of the 1:1 H-bond complex with 4-fluorophenol, by FTIR): 1.64 log units

CCOC(=O)C1CC1
pK_BHX (log10 Kf of the 1:1 H-bond complex with 4-fluorophenol, by FTIR): 1.12 log units

CC(=O)c1ccc(C(C)C)cc1
pK_BHX (log10 Kf of the 1:1 H-bond complex with 4-fluorophenol, by FTIR): 1.21 log units

CCCCCCCCP(=O)(CCCCCCCC)CCCCCCCC
pK_BHX (log10 Kf of the 1:1 H-bond complex with 4-fluorophenol, by FTIR): 3.59 log units

CCN(CC)C(=O)N(CC)CC
pK_BHX (log10 Kf of the 1:1 H-bond complex with 4-fluorophenol, by FTIR): 2.43 log units

FC(F)(F)c1cccc(C2=NCCC2)c1
pK_BHX (log10 Kf of the 1:1 H-bond complex with 4-fluorophenol, by FTIR): 1.52 log units

CC(C)(C)I
pK_BHX (log10 Kf of the 1:1 H-bond complex with 4-fluorophenol, by FTIR): -0.33 log units

CC1(C)CCC(C)(C)O1
pK_BHX (log10 Kf of the 1:1 H-bond complex with 4-fluorophenol, by FTIR): 1.43 log units

OC(C(F)(F)F)C(F)(F)F
pK_BHX (log10 Kf of the 1:1 H-bond complex with 4-fluorophenol, by FTIR): -0.96 log units

COc1ccc(C(C)=O)cc1
pK_BHX (log10 Kf of the 1:1 H-bond complex with 4-fluorophenol, by FTIR): 1.33 log units

C1CSCSC1
pK_BHX (log10 Kf of the 1:1 H-bond complex with 4-fluorophenol, by FTIR): -0.06 log units

CC(C)(C)c1ccncc1
pK_BHX (log10 Kf of the 1:1 H-bond complex with 4-fluorophenol, by FTIR): 2.11 log units

CCN(CC)c1ccncc1
pK_BHX (log10 Kf of the 1:1 H-bond complex with 4-fluorophenol, by FTIR): 2.89 log units
